Measurements reported in US20100061982A1, “3-SUBSTITUTED-1H-INDOLE, 3-SUBSTITUTED-1H-PYRROLO[2,3-B]PYRIDINE AND 3-SUBSTITUTED-1H-PYRROLO[3,2-B]PYRIDINE COMPOUNDS, THEIR USE AS MTOR KINASE AND PI3 KINASE INHIBITORS, AND THEIR SYNTHESES” (priority 2008, published 2010).
Converted amounts (≈) assume the structure as drawn. Like-named read-outs stand apart in the source and are kept apart here.

How the values were obtained:
PI3K alpha = PI3K alpha (Homo sapiens, UniProt P42336); test: PI3K-alpha Fluorescence Polarization Assay; assay type: biochemical; settings: read-out: PI3K alpha Mean IC50
[1] = Microsome Stability (15 min), human; assay type: in vitro ADME; settings: microsomes, Phase I (NADPH), read-out: Microsome Stability (15 min) T ½ Phase I human
[2] = Microsome Stability (15 min), rat; assay type: in vitro ADME; settings: microsomes, Phase I (NADPH), read-out: Microsome Stability (15 min) T ½ Phase I rat
physchem = settings: pH 7.4, aqueous buffer
[3] = PAMPA permeability pH 7.4
[4] = Buffer Stability (37° C.)
[5] = Plasma Stability (37° C.), rat
[6] = Plasma Stability (37° C.), nude mouse
[7] = In vivo blood/plasma and tumor levels of prodrug and metabolites after 50 mg, kg po; settings: 50 mg
mTOR [8] = target: T1, mTOR (Homo sapiens, UniProt P42345); test: mTOR Enzyme Assay (DELFIA, purified enzyme); assay type: biochemical; parameters: FLAG; settings: read-out: mTOR Mean IC50
[9] = test system: human tumor xenograft models; settings: cited from earlier work
[10] = test system: acute lymphoblastic leukemia; settings: in vivo; cited from earlier work
mTOR [11] = target: T1, mTOR; settings: read-out: mTOR IC50; mTOR complexes / mTOR enzymes; cited from earlier work

Sequence of PI3K alpha (P42336 whole entry, species assumed): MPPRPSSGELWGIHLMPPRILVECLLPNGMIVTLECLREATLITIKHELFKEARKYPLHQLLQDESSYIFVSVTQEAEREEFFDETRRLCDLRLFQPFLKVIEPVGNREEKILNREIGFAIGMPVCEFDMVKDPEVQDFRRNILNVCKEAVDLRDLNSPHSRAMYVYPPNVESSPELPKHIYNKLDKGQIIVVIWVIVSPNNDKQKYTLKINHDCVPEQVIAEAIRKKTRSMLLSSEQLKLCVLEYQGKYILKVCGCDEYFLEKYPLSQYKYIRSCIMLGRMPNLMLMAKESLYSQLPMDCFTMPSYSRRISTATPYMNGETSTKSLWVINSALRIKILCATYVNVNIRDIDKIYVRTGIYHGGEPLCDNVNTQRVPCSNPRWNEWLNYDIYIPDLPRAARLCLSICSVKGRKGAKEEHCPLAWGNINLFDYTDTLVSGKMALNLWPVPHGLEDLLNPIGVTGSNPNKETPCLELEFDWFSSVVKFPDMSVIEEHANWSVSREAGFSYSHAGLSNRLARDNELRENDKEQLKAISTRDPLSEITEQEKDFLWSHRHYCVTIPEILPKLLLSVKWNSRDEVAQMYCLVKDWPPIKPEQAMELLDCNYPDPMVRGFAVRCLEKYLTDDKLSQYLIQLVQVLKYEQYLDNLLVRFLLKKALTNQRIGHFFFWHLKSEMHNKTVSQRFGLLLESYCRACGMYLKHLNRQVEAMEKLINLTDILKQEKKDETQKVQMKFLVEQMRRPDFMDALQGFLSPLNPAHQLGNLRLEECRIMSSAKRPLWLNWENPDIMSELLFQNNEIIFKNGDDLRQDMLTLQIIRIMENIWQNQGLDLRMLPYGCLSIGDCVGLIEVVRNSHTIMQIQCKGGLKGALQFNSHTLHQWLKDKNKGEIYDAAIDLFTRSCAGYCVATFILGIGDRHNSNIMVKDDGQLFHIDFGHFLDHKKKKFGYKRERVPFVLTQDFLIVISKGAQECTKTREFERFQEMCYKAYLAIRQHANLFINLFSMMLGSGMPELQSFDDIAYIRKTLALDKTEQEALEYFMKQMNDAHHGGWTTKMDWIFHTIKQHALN
Sequence of PI3K alpha (P27986 whole entry partner, species assumed): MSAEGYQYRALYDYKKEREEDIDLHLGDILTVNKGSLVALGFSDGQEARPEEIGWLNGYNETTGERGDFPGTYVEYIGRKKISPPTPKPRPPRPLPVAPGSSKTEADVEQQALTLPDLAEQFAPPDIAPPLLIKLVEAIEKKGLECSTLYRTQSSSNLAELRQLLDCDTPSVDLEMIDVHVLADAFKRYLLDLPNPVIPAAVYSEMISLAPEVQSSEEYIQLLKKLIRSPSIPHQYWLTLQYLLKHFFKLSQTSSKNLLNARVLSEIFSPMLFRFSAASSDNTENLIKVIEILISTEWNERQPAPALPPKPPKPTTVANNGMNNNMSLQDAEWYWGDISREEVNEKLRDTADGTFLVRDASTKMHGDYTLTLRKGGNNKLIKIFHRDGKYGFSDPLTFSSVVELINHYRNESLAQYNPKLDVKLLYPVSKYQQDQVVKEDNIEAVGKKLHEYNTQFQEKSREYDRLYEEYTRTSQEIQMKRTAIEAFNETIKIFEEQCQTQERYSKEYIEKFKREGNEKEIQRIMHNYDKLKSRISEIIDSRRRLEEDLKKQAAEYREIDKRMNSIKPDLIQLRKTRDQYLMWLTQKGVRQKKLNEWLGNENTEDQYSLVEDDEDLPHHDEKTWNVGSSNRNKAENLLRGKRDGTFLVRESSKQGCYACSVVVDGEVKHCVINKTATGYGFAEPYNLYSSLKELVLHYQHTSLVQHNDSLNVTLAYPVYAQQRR

COc1ccc2[nH]c(-c3ccccc3)c(/C=C3\Oc4cc(OC(=O)N(c5ccccc5)c5ccccc5)cc(OC(=O)N(c5ccccc5)c5ccccc5)c4C3=O)c2c1 [Example 11, (2Z)-2-[(5-methoxy-2-phenyl-1H-indol-3-yl)methylene]-3-oxo-2,3-dihydro-1-benzofuran-4,6-diyl bis(diphenylcarbamate)]
IC50 (PI3K alpha): > 5050 nM
half-life [1]: 23 min
half-life [2]: > 30 min
solubility (physchem): 1 µg/mL (≈ 1.27 µM)
PAMPA Pe [3]: 1.14 10e−6 cm/s
Buffer Stability (37° C.) % Remaining (at 16-23 hours) SGF ([4]; SGF): 100%
Buffer Stability (37° C.) % Remaining (at 16-23 hours) SIF ([4]; SIF): 98%
Buffer Stability (37° C.) % Remaining (at 16-23 hours) pH 1 ([4]; pH 1): 99%
Buffer Stability (37° C.) % Remaining (at 16-23 hours) pH 4.5 ([4]; pH 4.5): 103%
Buffer Stability (37° C.) % Remaining (at 16-23 hours) pH 6.6 ([4]; pH 6.6): 100%
Buffer Stability (37° C.) % Remaining (at 16-23 hours) pH 7.4 ([4]; pH 7.4): 100%
Buffer Stability (37° C.) % Remaining (at 16-23 hours) pH 9 ([4]; pH 9): 89%
Plasma Stability (37° C.) % Remaining (3-3.5 hours) rat [5]: 95%
Plasma Stability (37° C.) % Remaining (3-3.5 hours) nude mouse [6]: 85%
plasma prodrug concentration ([7]; 0.5 h): bql, bql
plasma prodrug concentration ([7]; 2 h): bql, bql

COc1ccc2[nH]c(-c3ccccc3)c(/C=C3\Oc4cc(OP(=O)(O)O)ccc4C3=O)c2c1 [Example 27, (2Z)-2-[(5-methoxy-2-phenyl-1H-indol-3-yl)methylene]-3-oxo-2,3-dihydro-1-benzofuran-6-yl dihydrogen phosphate]
IC50 (PI3K alpha): 123 nM
half-life [2]: 19 min
IC50 (mTOR [8]): 2450 nM
solubility (physchem): 65 µg/mL
PAMPA Pe [3]: 0 10e−6 cm/s

COc1ccc2[nH]c(-c3ccccc3)c(/C=C3\Oc4cc(OP(=O)(O)O)cc(OP(=O)(O)O)c4C3=O)c2c1 [Example 38, (2Z)-2-[(5-methoxy-2-phenyl-1H-indol-3-yl)methylene]-3-oxo-2,3-dihydro-1-benzofuran-4,6-diyl bis[dihydrogen (phosphate)]]
IC50 (PI3K alpha): 890 nM
IC50 (mTOR [8]): 985 nM
solubility (physchem): > 100 µg/mL
PAMPA Pe [3]: 0.01 10e−6 cm/s

Oc1cccc(-c2nc(N3CCOCC3)c3oc4ncccc4c3n2)c1 [PI103, 3-(4-(4-morpholinyl)pyrido[3′,′: 4,5]furo[3,2-d]pyrimidin-2-yl)phenol]
activity in human tumor xenograft models ([9]; I.P. dosing in mice, U87MG, PC3, MDA-MB-468, MDA-MB-435, HCT 116, SKOV3, IGROV-1): demonstrated activity

CO[C@H]1C[C@@H]2CC[C@@H](C)[C@@](O)(O2)C(=O)C(=O)N2CCCC[C@H]2C(=O)O[C@H]([C@H](C)C[C@@H]2CC[C@@H](OC(=O)C(C)(CO)CO)[C@H](OC)C2)CC(=O)[C@H](C)/C=C(\C)[C@@H](O)[C@@H](OC)C(=O)[C@H](C)C[C@H](C)/C=C/C=C/C=C/1C [Torisel]
activity in NOS/SCID xenograft mouse model of acute lymphoblastic leukemia [10]: active

FC(F)c1nc2ccccc2n1-c1nc(N2CCOCC2)nc(N2CCOCC2)n1 [ZSTK474, 2-(2-difluoromethylbenzoimidazol-1-yl)-4,6-dimorpholino-1,3,5-triazine]
tumor growth in mouse human xenograft cancer models ([9]; chronic oral administration, 400 mg/kg, A549, PC-3, WiDr): completely inhibited growth
IC50 (mTOR [11]): > 10000 nM
